Assays:
1205-Lu melanoma cells = assay: BRAF inhibitor sensitivity of 1205-Lu cells with modulated BPTF expression; format: cell-based, human; settings: for reduction in sensitivity to drug on overexpression of BPTF: 1205-Lu overexpressing BPTF; for increase in sensitivity of BPTF shRNA-expressing cells to drug: 1205-Lu, vs control shRNA-expressing cells
Protocol: (§1) Cell viability and colony formation were performed and cell cycle analysis was performed as described using common techniques in the art. Cells were treated with varying concentrations of vemurafenib for 72 hrs or dabrafenib (Chemitek, Indianapolis, Ind.) for 48 hrs or as indicated. DMSO was used as a vehicle.

BPTF [1] = assay: qRT-PCR of BPTF expression in B16-F10 cells; format: cell-based; settings: B16-F10 murine melanoma cells, mRNA level
Protocol: (§2) mRNAs were assayed using the TaqMan Gene Expression Assays in accordance with the manufacturer's instructions (Applied Biosystems). TaqMan probes for BPTF, HPRT1, CCND2, BCL-XL, TWIST1, RAB14, CEBPB, CHI3L1, DLL3, OLIG2, PDGFRA and BCL2 were purchased from Applied Biosystems (Foster City, Calif.).
(§3) Selected shRNAs cloned into the pLKO1-vector were co-transfected into 293T cells along with expression vectors containing the GAG/POL, REV and VSVG genes. Lentiviruses were harvested 48 hrs after transfection. Sub-confluent human melanoma or glioblastoma cells were infected with each harvested lentiviruses in the presence of 8 μg/ml of polybrene, and were selected in 1 μg/ml of puromycin at 48 hrs post-infection in their respective culture medium. B16-F10 cells were transfected with BPTF shRNA1, BPTF shRNA 2 or Neg shRNA vectors and stable transformants were selected with 2 ug/ml of puromycin.

[2] = test system: B16-F10 murine melanoma cells; assay: cDNA microarray gene expression profiling of B16-F10 clones; format: cell-based
Text: Total RNA was extracted from cells using the RNeasy kit (Qiagen, Valencia, Calif.). Ten micrograms of total RNA, along with universal mouse reference RNA (Stratagene, Santa Clara, Calif.), was converted to aminoallyl-modified cDNA by oligo(dT)-primed polymerization using SuperScript II reverse transcriptase (Invitrogen), coupled to N-hydroxysuccinimidyl esters of Cy3 or Cy5 (Amersham Pharmacia, Pittsburgh, Pa.), and then hybridized to a microarray slide as described (Haqq et al., 2005). After linear normalization, log (base 2) transformation, and supervised hierarchical clustering, the resulting cluster data table was imported into the significance analysis of microarrays software package. Delta was chosen to limit the output gene list so that 5% predicted false positives would be included.

[3] = test system: 1205-Lu human melanoma cells; assay: Apoptosis, 1205-Lu; format: cell-based; settings: p<0.02
U251 human GBM cells [4] = assay: Matrigel invasion assay, U251; format: cell-based
Protocol: (§4) A Matrigel assay for tumor invasion was performed using routine techniques. For B16-F10, 1205-Lu and C8161.9 cells, insert chambers were coated with 15 μl matrigel at 6 mg/ml protein, 17 μl and 7 mg/ml for C8161.9 cells and 15 μl and 5 mg/ml for 1205-Lu and U251 cell lines.

[5] = test system: 1205-Lu human melanoma cells; assay: Cell survival assay, 1205-Lu; format: cell-based
Protocol: as §1

U251 human GBM cells [6] = assay: Cell cycle analysis, U251; format: cell-based; settings: U251, p<0.01
Protocol: as §1

BPTF [7] = assay: qRT-PCR of BPTF expression in 1205-Lu cells; format: cell-based; settings: 1205-Lu human melanoma cells (mutant BRAF)
Protocol: as §2, §3

[8] = test system: 1205-Lu human melanoma cells; assay: Cell cycle analysis, 1205-Lu; format: cell-based; settings: vs control shRNA vector
Protocol: as §1

BCL2, BCL-XL and CCND2 = assay: Expression of BCL2, BCL-XL and CCND2 in GBM cells; format: cell-based, human; settings: GBM cells (U251)
Protocol: as §2
(§5) Western blot analysis was performed. Target proteins were detected by using specific antibodies against BPTF (Bethyl Laboratories Montgomery, TX), BCL2, and GAPDH (Santa Cruz Biotechnology, Santa Cruz, Calif.), and ERK1/2, pERK1/2, CCND2, BCL-XL, p90RSK (Cell Signaling Technology, Danvers, Mass.).

U251 human GBM cells [9] = assay: Subcutaneous U251 tumor growth in nude mice; format: in vivo; settings: subcutaneous inoculation
Protocol: (§6) All animal care was in accordance with institutional guidelines and a protocol that was approved by the University of California San Francisco Committee on Animal Research and California Pacific Medical Center Research Institute. Groups of 45-day-old female C57B1/6 (Charles River) were inoculated by tail vein injection with 30,000 B16-F10 BPTF stables cells. 1×10^6 1205-Lu cells were injected by tail vain in nude mice. For subcutaneous injection 1×10^6 1205-Lu, B16-F10, or C8161.9 cells and 2×10^6 U251 cells were injected, respectively.

[10] = test system: 1205-Lu human melanoma cells; assay: Matrigel invasion assay, 1205-Lu; format: cell-based
Protocol: as §4

U251 human GBM cells [11] = assay: Apoptosis, U251; format: cell-based; settings: U251, p<0.02
[12] = test system: 1205-Lu human melanoma cells; assay: Lung metastatic tumor burden after intravenous inoculation of 1205-Lu cells; format: in vivo; settings: nude mice
Protocol: as §6

[13] = test system: 1205-Lu human melanoma cells; assay: Subcutaneous tumor growth of 1205-Lu cells in nude mice; format: in vivo; settings: 1205-Lu in nude mice, vs control shRNA-expressing cells
Protocol: as §6

U251 human GBM cells [14] = assay: Cell survival and colony formation, U251; format: cell-based
Protocol: as §1

[15] = test system: 1205-Lu human melanoma cells; assay: Colony formation assay, 1205-Lu; format: cell-based; settings: p<0.02
Protocol: as §1

[16] = test system: phosphorylated ERK1/2 and p90RSK; assay: Western blot of phosphorylated ERK1/2 and p90RSK in GBM cells; format: cell-based, human; settings: GBM cells (U251)
Protocol: as §5

BPTF [17] = assay: qRT-PCR of BPTF expression in U251 cells; format: cell-based; settings: U251 human GBM cells
Protocol: as §2, §3

[18] = B16-F10 clones stably expressing shRNA vs control vector

In the case of `CC(C)(C)c1nc(-c2cccc(NS(=O)(=O)c3c(F)cccc3F)c2F)c(-c2ccnc(N)n2)s1` [dabrafenib], the “reduction in sensitivity to drug on overexpression of BPTF” value (1205-Lu melanoma cells) is reported as 3.4 fold and the “increase in sensitivity of BPTF shRNA-expressing cells to drug” value (1205-Lu melanoma cells) is reported as 2.8 fold.
For `CCCS(=O)(=O)Nc1ccc(F)c(C(=O)c2c[nH]c3ncc(-c4ccc(Cl)cc4)cc23)c1F` [vemurafenib], the “reduction in sensitivity to drug on overexpression of BPTF” value (1205-Lu melanoma cells) was 2.5 fold and the “increase in sensitivity of BPTF shRNA-expressing cells to drug” value (1205-Lu melanoma cells) was 3.2 fold.
In the case of “BPTF shRNA 1: shRNA targeting BPTF, TGGCTGTGATCGGTGTCAGAATTGGTACC (SEQ ID NO:3); used for the murine cell line (listed as DNA, chemistry not fully specified)”, the “BPTF expression (qRT-PCR)” value (BPTF [1]) is reported as “suppressed significantly”.
“BPTF shRNA 2: shRNA targeting BPTF, GGTGATGAAGCATAATGCTGTA ATAGAAC (SEQ ID NO:4); used for the murine cell line (GGTGATGAAGCATAATGCTGTAATAGAAC; listed as DNA, chemistry not fully specified)” was tested, and the “Bcl-xl and Ccnd2 expression” value ([2]; B16-F10, microarray, confirmed by qRT-PCR and western blot) was “downregulated”, the “number of genes overexpressed” value [2, 18] was 1008 genes and the “number of genes with downregulated expression” value [2, 18] was 27 genes. For the same compound, the “BPTF expression (qRT-PCR)” value (BPTF [1]) was “suppressed significantly”.
With “BPTF shRNA 3: shRNA targeting human BPTF, ATTTAGATTCATCATAAGGCG (SEQ ID NO:5) (listed as DNA, chemistry not fully specified)” the apoptotic index [3] was “significantly increased”, the invasiveness (U251 human GBM cells [4]) was “significantly reduced” and the cell survival [5] was “suppression”. The cell cycle distribution (U251 human GBM cells [6]) was “significant G1/G0 cell cycle arrest”, the BPTF expression (BPTF [7]) was “significant suppression” and the cell cycle distribution [8] was “G1/G0 cell cycle arrest and a significant reduction in S-phase”. For the same compound, the “expression of BCL2, BCL-XL and CCND2” value (BCL2, BCL-XL and CCND2) was “suppression”, the “U251 tumor cell growth” value (U251 human GBM cells [9]) was “highly significant reduction” and the “invasiveness into Matrigel” value [10] was “significant decrease”. For the same compound, the apoptosis (U251 human GBM cells [11]) was “induction”, the “reduction in the metastatic tumor burden in the lungs” value [12] was 66% and the “subcutaneous tumor cell growth” value [13] was “considerably suppressed”. For the same compound, the “proliferation (cell survival and colony formation)” value (U251 human GBM cells [14]) was “significantly reduced”, the colony formation ability [15] was “suppression” and the “phosphorylated ERK1/2 and p90RSK” value [16] was “significant suppression”. For the same compound, the BPTF expression (BPTF [17]) was “Stable suppression”.
